The source of these data is BindingDB's records for doi:10.1042/BJ20021535 (University of Dundee, 2003).

The target in assay [1] is Dual specificity tyrosine-phosphorylation-regulated kinase 1A (Rattus norvegicus, UniProt Q63470).
Assay [2] addresses Cyclin-dependent kinase 2 (Homo sapiens, UniProt P24941).
Assay [3] addresses Ninein (Homo sapiens, UniProt Q8N4C6).
In assay [4] the target is Tyrosine-protein kinase Lck (Homo sapiens, UniProt P06239).
The target in assay [5] is T1, Serine/threonine-protein kinase Sgk1 (Homo sapiens, UniProt O00141).
T1 sequence (O00141 whole entry): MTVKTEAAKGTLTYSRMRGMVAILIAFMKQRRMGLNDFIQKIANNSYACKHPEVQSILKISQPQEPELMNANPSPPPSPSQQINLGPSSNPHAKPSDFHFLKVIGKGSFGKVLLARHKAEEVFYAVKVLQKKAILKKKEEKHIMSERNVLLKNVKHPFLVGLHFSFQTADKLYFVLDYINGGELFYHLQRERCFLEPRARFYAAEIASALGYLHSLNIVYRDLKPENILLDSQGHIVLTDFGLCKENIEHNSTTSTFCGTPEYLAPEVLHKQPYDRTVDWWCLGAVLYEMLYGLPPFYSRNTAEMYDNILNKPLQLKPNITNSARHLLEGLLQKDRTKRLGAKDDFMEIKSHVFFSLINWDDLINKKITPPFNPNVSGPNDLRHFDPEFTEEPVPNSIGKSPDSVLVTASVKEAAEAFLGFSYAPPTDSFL

In assay [6] the target is Casein kinase I isoform delta (Rattus norvegicus, UniProt Q06486).
Casein kinase I isoform delta, sequence (Q06486 whole entry, canonical isoform): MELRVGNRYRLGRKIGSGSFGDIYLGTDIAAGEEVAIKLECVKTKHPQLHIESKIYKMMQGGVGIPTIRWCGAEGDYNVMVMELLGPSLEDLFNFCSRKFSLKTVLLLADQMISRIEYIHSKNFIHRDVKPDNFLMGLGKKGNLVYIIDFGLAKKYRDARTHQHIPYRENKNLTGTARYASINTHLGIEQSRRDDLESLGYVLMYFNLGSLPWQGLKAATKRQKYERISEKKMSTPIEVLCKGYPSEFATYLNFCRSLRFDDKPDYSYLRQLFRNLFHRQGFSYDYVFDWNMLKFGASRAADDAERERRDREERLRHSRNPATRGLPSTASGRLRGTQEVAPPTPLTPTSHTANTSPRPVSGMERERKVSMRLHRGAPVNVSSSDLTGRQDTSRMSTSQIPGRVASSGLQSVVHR

Ninein, sequence (Q8N4C6 whole entry): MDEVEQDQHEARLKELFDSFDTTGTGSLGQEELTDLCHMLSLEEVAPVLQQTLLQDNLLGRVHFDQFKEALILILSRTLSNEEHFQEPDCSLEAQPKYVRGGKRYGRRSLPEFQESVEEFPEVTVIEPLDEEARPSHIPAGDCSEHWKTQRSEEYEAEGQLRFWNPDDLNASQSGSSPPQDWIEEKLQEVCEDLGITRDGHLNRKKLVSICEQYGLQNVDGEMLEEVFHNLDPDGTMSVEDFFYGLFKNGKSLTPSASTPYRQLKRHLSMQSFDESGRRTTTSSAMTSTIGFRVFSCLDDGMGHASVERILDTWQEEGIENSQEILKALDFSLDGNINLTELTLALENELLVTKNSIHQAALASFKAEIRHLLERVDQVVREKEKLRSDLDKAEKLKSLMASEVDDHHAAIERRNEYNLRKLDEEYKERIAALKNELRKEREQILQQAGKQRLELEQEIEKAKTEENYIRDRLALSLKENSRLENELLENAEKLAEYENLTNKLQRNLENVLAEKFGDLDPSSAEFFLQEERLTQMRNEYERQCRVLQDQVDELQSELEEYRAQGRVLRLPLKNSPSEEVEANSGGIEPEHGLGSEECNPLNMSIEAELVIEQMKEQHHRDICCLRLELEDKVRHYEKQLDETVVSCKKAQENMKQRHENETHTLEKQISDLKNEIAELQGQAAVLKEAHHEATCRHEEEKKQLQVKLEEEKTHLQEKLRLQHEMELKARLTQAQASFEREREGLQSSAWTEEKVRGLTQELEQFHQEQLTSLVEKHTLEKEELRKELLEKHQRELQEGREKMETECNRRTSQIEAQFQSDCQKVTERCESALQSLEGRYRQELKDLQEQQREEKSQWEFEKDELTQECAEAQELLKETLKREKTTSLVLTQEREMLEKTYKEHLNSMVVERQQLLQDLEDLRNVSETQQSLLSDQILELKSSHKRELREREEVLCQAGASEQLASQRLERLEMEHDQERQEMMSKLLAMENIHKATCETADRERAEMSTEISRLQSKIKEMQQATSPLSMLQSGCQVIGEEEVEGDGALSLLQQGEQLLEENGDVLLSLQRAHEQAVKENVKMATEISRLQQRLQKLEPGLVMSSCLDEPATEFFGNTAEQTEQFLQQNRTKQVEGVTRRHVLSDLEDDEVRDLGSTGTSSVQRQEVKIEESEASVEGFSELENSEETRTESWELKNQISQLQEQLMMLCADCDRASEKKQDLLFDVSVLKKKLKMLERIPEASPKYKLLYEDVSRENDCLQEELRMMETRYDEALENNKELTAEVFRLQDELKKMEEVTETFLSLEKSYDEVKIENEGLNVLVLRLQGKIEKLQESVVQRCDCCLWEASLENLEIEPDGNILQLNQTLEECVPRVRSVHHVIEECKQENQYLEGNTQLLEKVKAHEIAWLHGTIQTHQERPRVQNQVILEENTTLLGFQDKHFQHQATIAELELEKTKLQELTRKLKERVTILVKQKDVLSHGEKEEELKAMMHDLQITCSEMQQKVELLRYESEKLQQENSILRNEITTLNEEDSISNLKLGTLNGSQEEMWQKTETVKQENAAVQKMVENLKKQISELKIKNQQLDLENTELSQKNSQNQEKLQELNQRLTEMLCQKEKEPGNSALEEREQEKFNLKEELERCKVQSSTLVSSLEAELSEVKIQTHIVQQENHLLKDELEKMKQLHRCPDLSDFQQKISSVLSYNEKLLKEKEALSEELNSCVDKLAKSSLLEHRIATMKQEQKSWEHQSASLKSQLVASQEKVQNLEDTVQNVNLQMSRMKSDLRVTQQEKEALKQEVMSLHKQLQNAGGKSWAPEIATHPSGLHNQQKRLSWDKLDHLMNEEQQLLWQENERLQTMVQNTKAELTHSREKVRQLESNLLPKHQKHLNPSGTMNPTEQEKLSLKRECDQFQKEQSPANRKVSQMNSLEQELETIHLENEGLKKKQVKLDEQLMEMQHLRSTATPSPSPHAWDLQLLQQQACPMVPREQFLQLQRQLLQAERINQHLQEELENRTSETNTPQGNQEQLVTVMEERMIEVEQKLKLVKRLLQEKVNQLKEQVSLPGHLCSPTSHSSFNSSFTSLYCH
Tyrosine-protein kinase Lck, sequence (P06239 whole entry): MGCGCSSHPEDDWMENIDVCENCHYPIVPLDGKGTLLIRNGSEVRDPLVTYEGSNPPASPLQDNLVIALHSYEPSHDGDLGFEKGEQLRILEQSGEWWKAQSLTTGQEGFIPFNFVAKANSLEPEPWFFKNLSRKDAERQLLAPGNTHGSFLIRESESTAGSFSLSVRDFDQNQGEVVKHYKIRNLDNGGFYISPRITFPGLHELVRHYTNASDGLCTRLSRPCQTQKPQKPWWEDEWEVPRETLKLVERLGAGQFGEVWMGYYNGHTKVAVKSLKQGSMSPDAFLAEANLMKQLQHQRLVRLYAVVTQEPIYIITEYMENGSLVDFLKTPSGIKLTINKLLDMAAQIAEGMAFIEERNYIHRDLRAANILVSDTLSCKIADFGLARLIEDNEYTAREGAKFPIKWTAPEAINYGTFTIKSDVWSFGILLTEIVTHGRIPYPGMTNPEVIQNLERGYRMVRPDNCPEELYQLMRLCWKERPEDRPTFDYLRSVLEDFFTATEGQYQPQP

As for `CC(C)[C@H](CO)Nc1nc(Nc2cccc(Cl)c2)c2ncn(C(C)C)c2n1` [(2R)-2-({6-[(3-chlorophenyl)amino]-9-(propan-2-yl)-9H-purin-2-yl}amino)-3-methylbutan-1-ol], the values for the inhibitory constant (Ki) in assay [1] and in assay [2] were 300 nM and 100 nM, respectively.
As for `O=Nc1c(C2C(=O)Nc3ccccc32)[nH]c2ccccc12` (centres undefined) [Indirubin-3 -monoxime], the Ki in assay [3] turned out to be 190 nM; in assay [4] it was 300 nM; in assay [2], 590 nM; in assay [5] it was 380 nM.
`CC[C@H](CO)Nc1nc(NCc2ccccc2)c2ncn(C(C)C)c2n1` [2,6,9-Trisubstituted purine deriv. 28]: the inhibition constant Ki in assay [6] is over 10 µM.
For `O=C1Cc2c([nH]c3ccc([N+](=O)[O-])cc23)-c2ccccc2N1` [NSC 705701], the affinity in assay [3] corresponds to a Ki of 110 nM.
`Nc1ncnc2c1cnn2-c1ccccc1` [1-Phenyl-1H-pyrazolo[3,4-d]pyrimidin-4-ylamine] gave an inhibitory constant (Ki) in assay [6] of 9.9 µM.

The Ki is a dissociation constant, usually derived from enzyme kinetics or from competition with a known ligand. Higher therefore signals lower affinity.
